The molecules below were run on E. coli [BL21(DE3)] (assay: Minimal Bactericidal Concentration (MBC) measurements, E. coli). Conditions: not given.
Type: cell-based
Experimental: Bacterial Cell Culturing. Expression cells from frozen stock were streaked onto a kanamycin-selected lysogeny broth (LBKan) agar plate using a sterile loop and incubated overnight at 37° C. One colony was then taken from the plate the next day to inoculate 50 mL of sterile LBKan broth and shaken at 37° C. until reaching a growth concentration of 4×10^8 CFU/mL. This protocol was used for bacterial cell culture preparation in all of the experiments described below.
Minimal Bactericidal Concentration (MBC) Measurements. E. coli cells were cultured as described above and aliquoted into sterile tubes. 1%, 10%, and 100% (w/v) solutions of IL in sterile water (correcting for water percentage of the IL) were prepared and sonicated for 15 minutes at 40° C. before addition to the liquid culture. IL solutions were then added to E. coli at varying percentages (v/v), allowing calculation of the actual concentration of IL that was added to the culture. 100 μL of each solution was then spread onto an LBKan agar plate and incubated overnight at 37° C. […] Each IL solution was tested in triplicate.

With `CCCCCCCCCCCC(=O)[O-].C[N+](C)(C)CCO` [CADDA 1:1, Choline Dodecanoate 1:1] the “E. coli MBC / killing efficacy concentration” value was 17.1 mM.

Same assay, conditions: Table 1; lowest IL concentration with no growth on LBKan agar plate, triplicate

In order of falling “E. coli MBC” value:
1. CCOCC(=O)[O-].C[N+](C)(C)CCO [CAEA 1:1, Choline Ethoxyacetate 1:1]  1746.07 mM
2. C[N+](C)(C)CCO.O=C([O-])CCS [CA3MP 1:1, Choline 3-Mercaptopropionate 1:1]  1378.42 mM
3. C[N+](C)(C)CCO.O=C([O-])CC(=O)O [CAMA 1:1, Choline Malonate 1:1]  1368.53 mM
4. C=CCC(=O)[O-].C[N+](C)(C)CCO [CA3BE 1:1, Choline 3-Butenoate 1:1]  1350.93 mM
5. CC=CC(=O)[O-].C[N+](C)(C)CCO [CA2BE 1:1, Choline 2-Butenoate 1:1]  1330.40 mM
6. CCCC(=O)[O-].C[N+](C)(C)CCO [CABA 1:1, Choline Butanoate 1:1]  1234.35 mM
7. CC=CCC(=O)[O-].C[N+](C)(C)CCO [CA3PE 1:1, Choline 3-Pentenoate 1:1]  1152.23 mM
8. CCC=CC(=O)[O-].C[N+](C)(C)CCO [CA2PE 1:1, Choline 2-Pentenoate 1:1]  1151.30 mM
9. C[N+](C)(C)CCO.O=C(O)CC(O)C(=O)[O-] (centres unmarked) [CAMI 1:1, Choline Malate 1:1]  1126.13 mM
10. CC/C=C(\C)C(=O)O [CAGAS 1:1, Choline trans-2-Methyl-2-Pentenoate 1:1]  530.73 mM
11. CC/C=C/CC(=O)O [CA3HE 1:1, Choline 3-Hexenoate 1:1]  511.17 mM
12. CCCC=CC(=O)[O-].C[N+](C)(C)CCO [CA2HE 1:1, Choline 2-Hexenoate 1:1]  507.63 mM
13. CCCCCC(=O)[O-].C[N+](C)(C)CCO [CAHA 1:1, Choline Hexanoate 1:1]  483.53 mM
14. CCCC=CCC(=O)[O-].C[N+](C)(C)CCO [CA3HPE 1:1, Choline 3-Heptenoate 1:1]  347.63 mM
15. CCCCC=CC(=O)[O-].C[N+](C)(C)CCO [CA2HPE 1:1, Choline 2-Heptenoate 1:1]  346.93 mM
16. CCCCCCC(=O)[O-].C[N+](C)(C)CCO [CAHPA 1:1, Choline Heptanoate 1:1]  101.80 mM
17. CCCC/C=C/CC(=O)O [CA3OE 1:1, Choline 3-Octenoate 1:1]  92.00 mM
18. CCCCC/C=C/C(=O)O [CA2OE 1:1, Choline 2-Octenoate 1:1]  84.70 mM
19. CCCCCCCC(=O)[O-].C[N+](C)(C)CCO [CAOA 1:1, Choline Octanoate 1:1]  76.63 mM
20. CC(=O)OCC(=O)O [CAAA 1:1, Choline Acetoxyacetate 1:1]  73.40 mM
21. CCCCC/C=C/CC(=O)O [CA3NE 1:1, Choline 3-Nonenoate 1:1]  57.50 mM
22. CCCCCC/C=C/C(=O)O [CA2NE 1:1, Choline 2-Nonenoate 1:1]  56.40 mM
23. CC/C=C(\C)C(=O)O [CAGAS 1:2, Choline trans-2-Methyl-2-Pentenoate 1:2]  44.60 mM
24. C[N+](C)(C)CCO.O=C([O-])C=CC(=O)O [CAME 1:1, Choline Maleate 1:1]  38.37 mM
25. C[N+](C)(C)CCO.O=C([O-])/C=C/C(=O)O [CAFU 1:1, Choline Fumarate 1:1]  27.17 mM
26. CCCCCCCCCCCC(=O)[O-].C[N+](C)(C)CCO [CADDA 1:1, Choline Dodecanoate 1:1]  17.10 mM
27. CCCCCCCC/C=C/C(=O)O [CA2UE 1:1, Choline 2-Undecenoate 1:1]  15.08 mM
28. CCCCCCCCC(=O)[O-].C[N+](C)(C)CCO [CANA 1:1, Choline Nonanoate 1:1]  13.63 mM
29. CCCCCCCC=CC(=O)[O-].C[N+](C)(C)CCO [CA2DE 1:1, Choline 2-Decenoate 1:1]  3.67 mM
30. CCCCCCC=CCC(=O)[O-].C[N+](C)(C)CCO [CA3DE 1:1, Choline 3-Decenoate 1:1]  3.10 mM
31. CCCCCC/C=C/C(=O)O [CA2NE 1:2, Choline 2-Nonenoate 1:2]  1.22 mM

Source: patent US20260034075A1, “CHOLINE CARBOXYLIC ACID BASED IONIC LIQUIDS AS ANTIMICROBIAL AGENTS” (University of Mississippi, priority 2022, published 2026)
